Reference: the supplement of paper PMC10307832

Assays:
Test in all cases: relative viability (nuclei count vs DMSO), 5 days (fraction); higher = more cells survive
AZ3146 + Tozasertib = compound: CN1CCC(CC1)OC2=CC(=C(C=C2)NC3=NC=C4C(=N3)N(C(=O)N4C)C5CCCC5)OC [AZ3146] + Cc1cc(Nc2cc(N3CCN(C)CC3)nc(Sc3ccc(NC(=O)C4CC4)cc3)n2)n[nH]1 [Tozasertib] (partner 0.1 µM)
Method in brief: (§1)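 Lung cancer cell lines in 1536-well plates got either a single drug or a fixed anchor-drug dose together with five library-drug doses (not always all listed) in √10 steps, by pin tool, on the day after seeding. Nuclei were counted after 5 days, and relative viability is the treated-to-vehicle ratio of nuclei counts. Values are medians of duplicate plates.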

AZ3146 + Vorinostat = compound: CN1CCC(CC1)OC2=CC(=C(C=C2)NC3=NC=C4C(=N3)N(C(=O)N4C)C5CCCC5)OC [AZ3146] + O=C(CCCCCCC(=O)Nc1ccccc1)NO [Vorinostat] (partner 1 µM)
Method in brief: as §1

GSK-J4 + Decitabine = compound: CCOC(=O)CCNc1cc(N2CCc3ccccc3CC2)nc(-c2ccccn2)n1 [GSK-J4] + Nc1ncn([C@H]2C[C@H](O)[C@@H](CO)O2)c(=O)n1 [Decitabine] (partner 2 µM)
Method in brief: as §1

GSK-J4 + Crizotinib = compound: CCOC(=O)CCNc1cc(N2CCc3ccccc3CC2)nc(-c2ccccn2)n1 [GSK-J4] + C[C@@H](Oc1cc(-c2cnn(C3CCNCC3)c2)cnc1N)c1c(Cl)ccc(F)c1Cl [Crizotinib] (partner 1 µM)
Method in brief: as §1

Row | Cell Line | relative viability (AZ3146 + Tozasertib; first compound 0.08 µM) | relative viability (AZ3146 + Tozasertib; first compound 0.253 µM) | relative viability (AZ3146 + Tozasertib; first compound 0.8 µM) | relative viability (AZ3146 + Tozasertib; first compound 2.53 µM) | relative viability (AZ3146 + Tozasertib; first compound 8 µM) | relative viability (AZ3146 + Vorinostat; first compound 0.08 µM) | relative viability (AZ3146 + Vorinostat; first compound 0.253 µM) | relative viability (AZ3146 + Vorinostat; first compound 0.8 µM) | relative viability (AZ3146 + Vorinostat; first compound 2.53 µM) | relative viability (AZ3146 + Vorinostat; first compound 8 µM) | relative viability (GSK-J4 + Decitabine; first compound 0.5 µM) | relative viability (GSK-J4 + Decitabine; first compound 1.581 µM) | relative viability (GSK-J4 + Decitabine; first compound 5 µM) | relative viability (GSK-J4 + Decitabine; first compound 15.81 µM) | relative viability (GSK-J4 + Decitabine; first compound 50 µM) | relative viability (GSK-J4 + Crizotinib; first compound 0.5 µM) | relative viability (GSK-J4 + Crizotinib; first compound 1.581 µM) | relative viability (GSK-J4 + Crizotinib; first compound 5 µM) | relative viability (GSK-J4 + Crizotinib; first compound 15.81 µM) | relative viability (GSK-J4 + Crizotinib; first compound 50 µM)
1 | HCC-827 | 0.45 | 0.454 | 0.414 | 0.427 | 0.368 | 0.774 | 0.916 | 0.641 | 0.844 | 0.892 | 0.345 | 0.31 | 0.482 | 0.292 | 0.31 | 0.963 | 0.931 | 0.933 | 0.91 | 0.848
2 | IA-LM | – | – | – | – | – | 0.674 | 0.872 | 1.01 | 0.924 | 1.06 | – | – | – | – | – | 0.793 | 0.745 | 0.867 | 0.691 | 0.0902
3 | NCI-H1623 | 0.46 | 0.404 | 0.461 | 0.481 | 0.4 | – | – | – | – | – | – | – | – | – | – | – | – | – | – | –
4 | NCI-H3122 | 0.397 | 0.345 | 0.307 | 0.344 | 0.228 | 0.92 | 0.969 | 1.08 | 1.07 | 0.932 | 0.476 | 0.459 | 0.454 | 0.345 | 0.415 | 0.287 | 0.275 | 0.27 | 0.243 | 0.283
5 | RERF-LC-KJ | 0.465 | 0.497 | 0.403 | 0.294 | 0.25 | 0.534 | 0.657 | 0.774 | 0.756 | 0.576 | 0.624 | 0.605 | 0.602 | 0.654 | 0.417 | 0.709 | 0.837 | 0.721 | 0.872 | 0.768
6 | NCI-H1703 | – | – | – | – | – | – | – | – | – | – | – | – | – | – | – | 0.736 | 0.748 | 0.431 | 0.616 | 0.662
7 | HCC-15 | 0.374 | 0.426 | 0.263 | 0.221 | 0.102 | 0.779 | 0.796 | 0.885 | 0.887 | 0.687 | 0.696 | 0.492 | 0.581 | 0.536 | 0.38 | 0.755 | 0.733 | 0.778 | 0.757 | 0.536
8 | NCI-H1666 | 0.473 | 0.527 | 0.442 | 0.463 | 0.338 | 0.976 | 1.09 | 1.01 | 1.09 | 0.994 | 0.747 | 0.726 | 0.84 | 0.666 | 0.674 | 0.925 | – | 1.01 | 0.882 | 0.462
9 | NCI-H1395 | 0.647 | 0.832 | 0.888 | 0.791 | 0.522 | 0.66 | 0.504 | – | 0.84 | 0.615 | 0.781 | 0.718 | 0.632 | 0.751 | 0.661 | – | – | – | – | –
10 | SK-LU-1 | 0.354 | 0.293 | 0.279 | 0.3 | 0.216 | 0.746 | 0.854 | 0.752 | 0.792 | 0.504 | 0.653 | 0.605 | 0.538 | 0.633 | 0.524 | 0.756 | 0.762 | 0.725 | 0.607 | 0.584
11 | NCI-H1299 | – | – | – | – | – | – | – | – | – | – | – | – | – | – | – | 0.984 | 0.91 | 0.873 | 0.937 | 0.923
